Assay results as given in PubChem BioAssay AID256 (DTP/NCI, 2004).
Inconclusive results and toxic doses are left out.

System: CD2F1 mice, L1210 leukemia ip, survival T/C
Test: NCI In Vivo Anticancer Drug Screen. Data for tumor model L1210 Leukemia (intraperitoneal) in CD2F1 (CDF1) mice
Settings: higher = longer survival
Method in brief: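 Read-out first: treated-group measurement over vehicle-control measurement, expressed as a ratio. Animals bore a transplanted tumor line and were dosed with compound or vehicle.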

[1] = endpoint: mean survival time, dose: 200.0 mg/kg/injection, schedule: Q04DX003 (ip), vehicle: other
[2] = endpoint: mean survival time, dose: 400.0 mg/kg/injection, schedule: Q04DX003 (ip), vehicle: other
[3] = endpoint: mean survival time, dose: 100.0 mg/kg/injection, schedule: Q04DX003 (ip), vehicle: saline with Tween-80
[4] = endpoint: mean survival time, dose: 100.0 mg/kg/injection, schedule: Q01DX009 (ip), vehicle: saline with Tween-80
[5] = endpoint: mean survival time, dose: 200.0 mg/kg/injection, schedule: Q01DX009 (ip), vehicle: saline with Tween-80
[6] = endpoint: mean survival time, dose: 100.0 mg/kg/injection, schedule: Q01DX001 (ip), vehicle: saline with Tween-80
[7] = endpoint: mean survival time, dose: 200.0 mg/kg/injection, schedule: Q01DX001 (ip), vehicle: saline with Tween-80
[8] = endpoint: mean survival time, dose: 400.0 mg/kg/injection, schedule: Q01DX001 (ip), vehicle: saline with Tween-80

In the case of `CCCCCCCCCC(O)CCCCCC` (configuration not stated), the T/C [1] is reported as 108 % of control and the T/C [2] is reported as 96 % of control.

In the case of `COc1ccc(C(C)c2cc3c(cc2OC)OCO3)cc1` (configuration not stated), the T/C (endpoint: median survival time, dose: 25.0 mg/kg/injection, schedule: Q01DX009 (ip), vehicle: saline with Tween-80) is reported as 101 % of control, the T/C (endpoint: median survival time, dose: 50.0 mg/kg/injection, schedule: Q01DX009 (ip), vehicle: saline with Tween-80) is reported as 107 % of control and the T/C (endpoint: median survival time, dose: 100.0 mg/kg/injection, schedule: Q01DX009 (ip), vehicle: saline with Tween-80) is reported as 113 % of control. The T/C (endpoint: median survival time, dose: 200.0 mg/kg/injection, schedule: Q01DX009 (ip), vehicle: saline with Tween-80) was 119 % of control.

In the case of `CC(=O)CC(Br)CBr` (configuration not stated), the T/C [3] is reported as 96 % of control.

`O=C1C=CC(=O)N1c1cc(Cl)ccc1Cl` was tested, and the T/C [3] was 93 % of control and the T/C (endpoint: mean survival time, dose: 200.0 mg/kg/injection, schedule: Q04DX003 (ip), vehicle: saline with Tween-80) was 93 % of control.

`Nc1ncnc2nc(-c3ccc(Cc4ccccc4)cc3)[nH]c12` was tested, and the T/C (endpoint: mean survival time, dose: 0.63 mg/kg/injection, schedule: Q01DX009 (ip), vehicle: saline) was 96 % of control, the T/C (endpoint: mean survival time, dose: 1.25 mg/kg/injection, schedule: Q01DX009 (ip), vehicle: saline) was 95 % of control and the T/C (endpoint: mean survival time, dose: 2.5 mg/kg/injection, schedule: Q01DX009 (ip), vehicle: saline) was 95 % of control.

With `CCCOc1cc[n+]([O-])c2ccccc12` the T/C (endpoint: mean survival time, dose: 100.0 mg/kg/injection, schedule: Q04DX002 (ip), vehicle: saline with Tween-80) was 94 % of control and the T/C (endpoint: mean survival time, dose: 200.0 mg/kg/injection, schedule: Q04DX002 (ip), vehicle: saline with Tween-80) was 94 % of control.

In the case of `CC(C)c1ccc2c(c1)CC[C@H]1[C@](C)(C#N)CCC[C@]21C`, the T/C [4] is reported as 95 % of control and the T/C [5] is reported as 94 % of control.

In the case of `COc1ccc(OCCOC(=O)Nc2c(Cl)cccc2Cl)cc1`, the T/C (endpoint: mean survival time, dose: 50.0 mg/kg/injection, schedule: Q01DX009 (ip), vehicle: saline with Tween-80) is reported as 98 % of control, the T/C [4] is reported as 94 % of control and the T/C [5] is reported as 94 % of control.

In the case of `O=C(O)CNCNCC(=O)O`, the T/C (endpoint: mean survival time, dose: 100.0 mg/kg/injection, schedule: Q04DX002 (ip), vehicle: saline) is reported as 90 % of control and the T/C (endpoint: mean survival time, dose: 200.0 mg/kg/injection, schedule: Q04DX002 (ip), vehicle: saline) is reported as 86 % of control.

For `CC(=O)N1CCCCC1`, the T/C (endpoint: mean survival time, dose: 25.0 mg/kg/injection, schedule: Q01DX009 (ip), vehicle: saline) was 102 % of control, the T/C (endpoint: mean survival time, dose: 50.0 mg/kg/injection, schedule: Q01DX009 (ip), vehicle: saline) was 96 % of control and the T/C (endpoint: mean survival time, dose: 100.0 mg/kg/injection, schedule: Q01DX009 (ip), vehicle: saline) was 102 % of control.

With `CCCS(=O)(=O)CS(=O)(=O)CC` the T/C (endpoint: mean survival time, dose: 75.0 mg/kg/injection, schedule: Q01DX001 (ip), vehicle: saline with Tween-80) was 100 % of control, the T/C (endpoint: mean survival time, dose: 150.0 mg/kg/injection, schedule: Q01DX001 (ip), vehicle: saline with Tween-80) was 92 % of control and the T/C (endpoint: mean survival time, dose: 300.0 mg/kg/injection, schedule: Q01DX001 (ip), vehicle: saline with Tween-80) was 90 % of control.

For `CN(C)N1C(=O)c2ccccc2C1=O`, the T/C (endpoint: mean survival time, dose: 100.0 mg/kg/injection, schedule: Q04DX003 (ip), vehicle: other) was 96 % of control, the T/C [1] was 104 % of control and the T/C [2] was 98 % of control.

In the case of `C1=CC2C3=CC1C=CC32` (configuration not stated), the T/C (endpoint: mean survival time, dose: 100.0 mg/kg/injection, schedule: Q01DX009 (ip), vehicle: acetone) is reported as 92 % of control and the T/C (endpoint: mean survival time, dose: 200.0 mg/kg/injection, schedule: Q01DX009 (ip), vehicle: acetone) is reported as 95 % of control.

In the case of `CCNC(=S)Nc1ccc(Cl)cc1`, the T/C (endpoint: mean survival time, dose: 25.0 mg/kg/injection, schedule: Q04DX003 (ip), vehicle: saline with Tween-80) is reported as 104 % of control, the T/C (endpoint: mean survival time, dose: 50.0 mg/kg/injection, schedule: Q04DX003 (ip), vehicle: saline with Tween-80) is reported as 101 % of control and the T/C [3] is reported as 91 % of control.

`CCCCCC(C)(C)O` was tested, and the T/C (endpoint: mean survival time, dose: 100.0 mg/kg/injection, schedule: Q04DX003 (ip), vehicle: saline sonified) was 94 % of control, the T/C (endpoint: mean survival time, dose: 200.0 mg/kg/injection, schedule: Q04DX003 (ip), vehicle: saline sonified) was 90 % of control and the T/C (endpoint: mean survival time, dose: 400.0 mg/kg/injection, schedule: Q04DX003 (ip), vehicle: saline sonified) was 101 % of control.

In the case of `Cn1cnc([N+](=O)[O-])c1Sc1nc(N)nc2nc[nH]c12`, the T/C (endpoint: mean survival time, dose: 5.0 mg/kg/injection, schedule: Q03DX003 (ip), vehicle: Klucel (hydroxypropylcellulose) (HPC)) is reported as 153 % of control, the T/C (endpoint: mean survival time, dose: 10.0 mg/kg/injection, schedule: Q01DX007 (ip), vehicle: Klucel (hydroxypropylcellulose) (HPC)) is reported as 122 % of control and the T/C (endpoint: mean survival time, dose: 10.0 mg/kg/injection, schedule: Q03DX003 (ip), vehicle: Klucel (hydroxypropylcellulose) (HPC)) is reported as 160 % of control. The T/C (endpoint: mean survival time, dose: 20.0 mg/kg/injection, schedule: Q01DX007 (ip), vehicle: Klucel (hydroxypropylcellulose) (HPC)) was 117 % of control and the T/C (endpoint: mean survival time, dose: 20.0 mg/kg/injection, schedule: Q03DX003 (ip), vehicle: Klucel (hydroxypropylcellulose) (HPC)) was 154 % of control.

With `CC(C)(C)c1cc(Cc2cc(C(C)(C)C)c(O)c(C(C)(C)C)c2)cc(C(C)(C)C)c1O` the T/C [6] was 91 % of control, the T/C [7] was 91 % of control and the T/C [8] was 103 % of control.

With `CCc1ccc2ccccc2c1[N+](=O)[O-]` the T/C [6] was 105 % of control, the T/C [7] was 94 % of control and the T/C [8] was 98 % of control.

In the case of `COc1ccc(CCNC(=O)Cc2cc3c(cc2[N+](=O)[O-])OCO3)cc1OC`, the T/C (endpoint: mean survival time, dose: 100.0 mg/kg/injection, schedule: Q01DX001 (ip), vehicle: saline) is reported as 95 % of control, the T/C (endpoint: mean survival time, dose: 200.0 mg/kg/injection, schedule: Q01DX001 (ip), vehicle: saline) is reported as 94 % of control and the T/C (endpoint: mean survival time, dose: 400.0 mg/kg/injection, schedule: Q01DX001 (ip), vehicle: saline) is reported as 95 % of control.
